Measured values from paper PMC12301332, “Biased antagonism of a series of bicyclic CXCR2 intracellular allosteric modulators” (Frontiers in Pharmacology, 2025).

Legend:
[1] = biological target: T1, CXCR2 (Homo sapiens, UniProt P25025); set-up: method as in Boon et al., 2024; details: agonist concentration used in NanoBRET assays; ref Boon et al., 2024; cited from earlier work
T1 construct: expressed in transfected cells
T1 sequence (P25025 1-360): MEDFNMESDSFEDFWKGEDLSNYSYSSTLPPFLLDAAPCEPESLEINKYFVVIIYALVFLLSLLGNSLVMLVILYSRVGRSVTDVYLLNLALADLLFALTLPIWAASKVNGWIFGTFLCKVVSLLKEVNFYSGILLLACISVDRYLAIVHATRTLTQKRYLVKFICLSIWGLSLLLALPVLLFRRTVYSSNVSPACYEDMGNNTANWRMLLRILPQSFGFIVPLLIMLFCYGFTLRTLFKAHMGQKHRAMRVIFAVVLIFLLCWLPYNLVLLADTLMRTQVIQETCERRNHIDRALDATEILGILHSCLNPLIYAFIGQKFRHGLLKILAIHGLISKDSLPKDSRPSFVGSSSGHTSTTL

[2] = biological target: T1, CXCR2; set-up: method as in Boon et al., 2024; details: agonist concentration used in NanoBRET assays; ref Boon et al., 2024; cited from earlier work; remark: listed apart in the source
[3] = biological target: T1, CXCR2; assay: NanoBRET-based G protein activation inhibition assay (REGA-SIGN Gαi1 dissociation) in HEK293A.CXCR2 cells; assay type: cell-based; details: n = 3; for IC50: mean; for Imax Gαi1 (maximum observed inhibitory effect): normalized to Imax of navarixin = 100%
Description: Cells were trypsinized and resuspended at 3 × 10^5 cell/mL in the growth medium, whereafter they were incubated for 2 hours at RT. Cells were transfected in suspension using FuGENE® HD Transfection Reagent at a 3:1 reagent to DNA ratio in Opti-MEMTM I Reduced-Serum Medium, with the final DNA concentration of 1 μg/μL. The transfection mixture was incubated for 10 min at RT before adding it to the cell suspension. Transfected cells were seeded at 3.0 × 10^4 cells/well in a white, clear, flat-bottom 96-well plate coated with 100 μg/mL poly-D-lysin ([…], Sigma Aldrich) and incubated for 48 h at 37°C and 5% CO2. […] (2023)]. Following the 48-h incubation period, cells were washed with the assay buffer. Compounds were serially diluted in 1:500 Nano-Glo® Vivazine^TM working solution (#N2581, Promega), and 90 μL of compound/Vivazine mix was added, followed by incubation for 45 min at 37°C and 5% CO2. Plates were transferred to the FLIPR Penta system (Molecular Devices) at 37°C, and all steps onward are automated and performed by the FLIPR Penta system. After a 10-min equilibration period, the baseline BRET signal was determined by five consecutive reads followed by automatic administration of 10 μL of 10× ligand (Table 1) to the cell plate. Changes in the BRET signal was measured for 10 min, with each read spaced by 2.5 s. […] BRET ratios were extracted from ScreenWorks software (Molecular Devices) and represent the ratio between the acceptor emission of […]2 or mNG (G protein or β-arrestin recruitment, respectively) and NLuc donor emission. The basal BRET ratio was defined as the average BRET ratio of the five consecutive readings preceding ligand addition. Changes in BRET values post ligand administration (ΔBRET) were calculated for each well as a percentage difference to the previously defined basal BRET ratio. Average ΔBRET values were baseline corrected by subtracting the average negative control BRET ratio (unstimulated condition). […] AUCs were normalized to the positive control (stimulated condition); whereafter, dose-response curves were fitted to log (inhibitor) vs response (three parameters) in GraphPad 10.2.0 (GraphPad Software). […] Calculation 1: calculation of the BRET signal. • 1. […] NC correctedΔBRET=Δ[…]. • 4. a. Neg AUC of NC correctedΔBRET=Gα activation read out. b. Pos AUC of NC correctedΔBRET=β-arrestin recruitment.

[4] = biological target: T1, CXCR2; assay: NanoBRET β-arrestin1 recruitment inhibition assay (NanoLux) in HEK293A cells; assay type: cell-based; details: n = 3; for IC50: mean, read-out: IC50 βarr1; for Imax βarr1 (maximum observed inhibitory effect): normalized to Imax of navarixin = 100%
Description: Cells were trypsinized and resuspended at 3 × 10^5 cell/mL in the growth medium, whereafter they were incubated for 2 hours at RT. Cells were transfected in suspension using FuGENE® HD Transfection Reagent at a 3:1 reagent to DNA ratio in Opti-MEMTM I Reduced-Serum Medium, with the final DNA concentration of 1 μg/μL. The transfection mixture was incubated for 10 min at RT before adding it to the cell suspension. Transfected cells were seeded at 3.0 × 10^4 cells/well in a white, clear, flat-bottom 96-well plate coated with 100 μg/mL poly-D-lysin ([…], Sigma Aldrich) and incubated for 48 h at 37°C and 5% CO2. HEK293A cells were transiently co-transfected with plasmids encoding β-arrestin1 protein tagged with NLuc (donor) and CXCR2 protein tagged with mNeonGreen (mNG) acceptor in a 1:10 donor to acceptor ratio, as described previously ([Luís et al., 2022]). All subsequent steps are identical to those in “NanoBRET-based G protein activation inhibition assay,” which are described above. Measurements were acquired using a 440- to 480-nm donor emission filter (#0200-6179, Molecular Devices) and a 515- to 575-nm acceptor emission filter (#0200-6203, Molecular Devices) BRET ratios were extracted from ScreenWorks software (Molecular Devices) and represent the ratio between the acceptor emission of […]2 or mNG (G protein or β-arrestin recruitment, respectively) and NLuc donor emission. The basal BRET ratio was defined as the average BRET ratio of the five consecutive readings preceding ligand addition. Changes in BRET values post ligand administration (ΔBRET) were calculated for each well as a percentage difference to the previously defined basal BRET ratio. Average ΔBRET values were baseline corrected by subtracting the average negative control BRET ratio (unstimulated condition). […] AUCs were normalized to the positive control (stimulated condition); whereafter, dose-response curves were fitted to log (inhibitor) vs response (three parameters) in GraphPad 10.2.0 (GraphPad Software). […] Calculation 1: calculation of the BRET signal. • 1. […] NC correctedΔBRET=Δ[…]. • 4. a. Neg AUC of NC correctedΔBRET=Gα activation read out. b. Pos AUC of NC correctedΔBRET=β-arrestin recruitment.

IC50 ([3]; CXCL1 at EC80) [nM]	Imax Gαi1 (maximum observed inhibitory effect) ([3]; CXCL1 at EC80) [%]	IC50 ([3]; CXCL2 at EC80) [nM]	Imax Gαi1 (maximum observed inhibitory effect) ([3]; CXCL2 at EC80) [%]	IC50 ([3]; CXCL3 at EC80) [nM]	Imax Gαi1 (maximum observed inhibitory effect) ([3]; CXCL3 at EC80) [%]	IC50 ([3]; CXCL5 at EC80) [nM]	Imax Gαi1 (maximum observed inhibitory effect) ([3]; CXCL5 at EC80) [%]	Imax Gαi1 (maximum observed inhibitory effect) ([3]; CXCL6 at EC80) [%]	Imax Gαi1 (maximum observed inhibitory effect) ([3]; CXCL7 at EC80) [%]	Imax Gαi1 (maximum observed inhibitory effect) ([3]; CXCL8 at EC80) [%]	Imax βarr1 (maximum observed inhibitory effect) ([4]; CXCL1 at EC80) [%]	Imax βarr1 (maximum observed inhibitory effect) ([4]; CXCL2 at EC80) [%]	Imax βarr1 (maximum observed inhibitory effect) ([4]; CXCL3 at EC80) [%]	Imax βarr1 (maximum observed inhibitory effect) ([4]; CXCL5 at EC80) [%]	Imax βarr1 (maximum observed inhibitory effect) ([4]; CXCL6 at EC80) [%]	Imax βarr1 (maximum observed inhibitory effect) ([4]; CXCL7 at EC80) [%]	Imax βarr1 (maximum observed inhibitory effect) ([4]; CXCL8 at EC80) [%]	Compound	G-protein EC80 [1] [nM]	β-arrestin EC80 [2] [nM]	other results
–	–	–	–	–	–	–	–	–	–	–	–	–	–	–	–	–	–	CXCL2: recombinant human ELR+ chemokine, CXCR2 ligand (PeproTech)	2.15	147.8	–
> 15000	<50	> 15000	<50	> 15000	<50	> 15000	<50	<50	<50	<50	100	100	100	100	100	100	100	CC(CO)Nc1nc(SCc2cccc(F)c2F)nc2[nH]cnc12 (centres unmarked) [MVH-15]	–	–	IC50 ([3]; CXCL6 at EC80): > 15000 nM; IC50 ([3]; CXCL7 at EC80): > 15000 nM; IC50 ([3]; CXCL8 at EC80): > 15000 nM; IC50 ([4]; CXCL1 at EC80): 3510 ± 830 nM; IC50 ([4]; CXCL2 at EC80): 2060 ± 570 nM; IC50 ([4]; CXCL3 at EC80): 4290 ± 1160 nM; IC50 ([4]; CXCL5 at EC80): 2100 ± 360 nM; IC50 ([4]; CXCL6 at EC80): 2280 ± 570 nM; IC50 ([4]; CXCL7 at EC80): 700 ± 140 nM; IC50 ([4]; CXCL8 at EC80): 4070 ± 1600 nM
–	–	–	–	–	–	–	–	–	–	–	–	–	–	–	–	–	–	CXCL5: recombinant human ELR+ chemokine, CXCR2 ligand (PeproTech)	5.16	86.19	–
> 15000	<50	> 15000	<50	> 15000	<50	> 15000	<50	<50	<50	<50	97.29 ± 1.61	96.96 ± 5.75	100	100	100	98.49 ± 1.76	100	CCCC(C)CSc1nc(NC(C)CO)c2nn[nH]c2n1 (centres unmarked) [MVH-82]	–	–	IC50 ([3]; CXCL6 at EC80): > 15000 nM; IC50 ([3]; CXCL7 at EC80): > 15000 nM; IC50 ([3]; CXCL8 at EC80): > 15000 nM; IC50 ([4]; CXCL1 at EC80): 2130 ± 340 nM; IC50 ([4]; CXCL2 at EC80): 740 ± 160 nM; IC50 ([4]; CXCL3 at EC80): 2530 ± 150 nM; IC50 ([4]; CXCL5 at EC80): 1330 ± 470 nM; IC50 ([4]; CXCL6 at EC80): 880 ± 470 nM; IC50 ([4]; CXCL7 at EC80): 370 ± 110 nM; IC50 ([4]; CXCL8 at EC80): 2320 ± 720 nM
–	–	–	–	–	–	–	–	–	–	–	–	–	–	–	–	–	–	CXCL3: recombinant human ELR+ chemokine, CXCR2 ligand (PeproTech)	8.92	100.10	–
> 15000	<50	> 15000	<50	> 15000	<50	> 15000	<50	<50	<50	<50	100	100	100	100	100	97.6 ± 3.45	100	CC(CO)Nc1nc(SCc2cccc(F)c2F)nc2ncsc12 (centres unmarked) [MVH-22]	–	–	IC50 ([3]; CXCL6 at EC80): > 15000 nM; IC50 ([3]; CXCL7 at EC80): > 15000 nM; IC50 ([3]; CXCL8 at EC80): > 15000 nM; IC50 ([4]; CXCL1 at EC80): 2850 ± 680 nM; IC50 ([4]; CXCL2 at EC80): 1500 ± 180 nM; IC50 ([4]; CXCL3 at EC80): 3440 ± 750 nM; IC50 ([4]; CXCL5 at EC80): 1960 ± 530 nM; IC50 ([4]; CXCL6 at EC80): 1470 ± 200 nM; IC50 ([4]; CXCL7 at EC80): 500 ± 70 nM; IC50 ([4]; CXCL8 at EC80): 2660 ± 300 nM
–	–	–	–	–	–	–	–	–	–	–	–	–	–	–	–	–	–	CXCL1: recombinant human ELR+ chemokine, CXCR2 ligand (PeproTech)	3.20	59.18	–
–	–	–	–	–	–	–	–	–	–	–	–	–	–	–	–	–	–	CXCL8: recombinant human ELR+ chemokine, CXCR2 ligand (PeproTech)	4.16	17.29	–
–	–	–	–	–	–	–	–	–	–	–	–	–	–	–	–	–	–	CXCL6: recombinant human ELR+ chemokine, CXCR2 ligand (PeproTech)	17.12	168.00	–
–	94.85 ± 3.70	–	100	–	100	–	94.29 ± 2.32	100	100	100	100	100	100	100	100	100	100	CC(CO)Nc1nc(SCc2cccc(F)c2F)nc2nc(N)sc12 (centres unmarked) [MVH-23]	–	–	–
